Earlier results as cited in US20090270438A1, “Novel compositions and formulations” (priority 2006, published 2009).

Details: Pharmaceutical Codex

Structure (SMILES): COC12CCC3(CC1C(C)(O)C(C)(C)C)C1Cc4ccc(O)c5c4C3(CCN1CC1CC1)C2O5 (stereo not shown) [buprenorphine, Buprenorphine]
- pKa: 8.5
